Measured values published in paper PMC11487561 (ACS Chemical Neuroscience, 2024).
Read-outs that look alike come from different tables or passages of the source.

Assays:
[1] = target: T1, human M4 (hM4) (Homo sapiens, UniProt P08173); assay: Calcium mobilization assay, hM4/Gqi5-CHO cells, EC20 acetylcholine (PAM); type: cell-based; conditions: for hM4 pEC50 / Emax / EC50: calcium mobilization, hM4/Gqi5-CHO cells, EC20 acetylcholine; for Emax: read-out: hM4 %ACh Max; for fold decrease in hM4 activity with R1 larger than methyl: relative to the R1 = methyl analogue
T1 construct: expressed in transfected cells
T1 sequence (P08173 1-479): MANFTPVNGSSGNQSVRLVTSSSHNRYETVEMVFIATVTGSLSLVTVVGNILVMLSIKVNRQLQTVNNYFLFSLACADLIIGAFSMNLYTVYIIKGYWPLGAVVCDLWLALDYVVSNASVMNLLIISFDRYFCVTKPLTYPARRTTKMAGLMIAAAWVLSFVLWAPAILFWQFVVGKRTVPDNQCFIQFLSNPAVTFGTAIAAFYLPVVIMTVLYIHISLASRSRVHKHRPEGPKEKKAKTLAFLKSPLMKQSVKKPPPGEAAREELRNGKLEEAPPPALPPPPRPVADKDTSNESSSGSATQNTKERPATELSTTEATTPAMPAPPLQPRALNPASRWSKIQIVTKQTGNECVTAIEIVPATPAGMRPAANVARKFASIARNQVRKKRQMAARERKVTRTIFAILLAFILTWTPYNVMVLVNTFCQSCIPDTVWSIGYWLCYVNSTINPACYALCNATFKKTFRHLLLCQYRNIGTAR

[2] = Intrinsic clearance in rat liver microsomes; type: in vitro ADME; conditions: pH 7.4; rat liver microsomes
Protocol: (§1) Intrinsic Clearance in Rat and Human Liver Microsomes
(§2) The in vitro intrinsic clearance (CL int) was investigated in commercially obtained hepatic microsomes from rat and human donors using the substrate depletion (i.e., loss-of-parent vs. time, or t 1/2 method) approach with analyte detection via liquid chromatography-tandem mass spectrometry (LC-MS/MS). For each species, mean %parent remaining values at each time point were calculated from replicates raw data (analyte:IS peak area ratios) and used to determine in vitro t 1/2 and CLint.
(§3) Experiments were carried out using a robot-assisted (TECAN model Evo 200). Compound was incubated (1 µM final concentration) in buffer (100 mM potassium phosphate pH 7.4 with 3 mM MgCl2) containing hepatic microsomes (0.5 mg/mL final concentration) from multiple species, discretely, at 37 °C under constant orbital shaking. After 5 minutes (pre-incubation), reactions were initiated by addition of nicotinamide adenine dinucleotide phosphate (NADPH, 1 mM final concentration). At selected time intervals (0, 3, 7, 15, 25, and 45 minutes) post-addition of NADPH, aliquots (50 µL) were taken and placed into a 96-shallow-well plate containing ice cold acetonitrile (150 µL) with carbamazepine (IS, 50 nM). The plates were then centrifuged (3000 rcf at 4 °C) for 10 minutes. The supernatants were transferred to a new 96-shallow-well daughter plate and diluted (1:1 v/v) with water (Milli-Q filtered). The plates were then sealed in preparation for LC-MS/MS analysis (see below).
(§4) Raw LC-MS/MS peak area data generated from the assay samples were used to construct natural log-transformed %parent remaining vs. time plots (using t = 0 minute post-NADPH addition sample data as starting point set to 100%). In vitro compound half-life (t 1/2) values were obtained using the following […]
(§5) k is the slope from linear regression analysis of the natural log-transformed data (using means from Where all replicates at each time point). Resulting t 1/2 values were then used to calculate hepatic CLint values according to the following equation and with the use of species-specific scale-up factors for liver weight (grams) per total body weight (kg): […]
(§6) CLint = in vitro t1/2 x 0.5 mg microsomes x 1 gram liver x kg body wt aScale-up factors used are 45 (rat) and 20 (human).2
(§7) Predicted hepatic clearance (CLhep) was calculated using the following equation: […]
(§8) Qh represents hepatic blood flow (mL/min/kg): 21 for human, 70 for rat, and 90 for mouse.
(§9) Prepared samples were injected (10 µL each) onto an AB Sciex Triple Quad 4500 mass spectrometer system with an Agilent 1260 Infinity II pump and autosampler. Mass spectrometer conditions are described in Table S1. Quantitation of compounds was performed via AB Sciex Multiquant software using the raw analyte:IS peak area ratios. The typical detection range was 0.5 ng/mL to ≥ 5,000 ng/mL utilizing a quadratic equation regression with 1/x2 weighting. […]
(§10) Table S1. LC-MS/MS Conditions*
(§11) Mobile phase A 0.5% Formic Acid in Water
(§12) Mobile phase B 0.5% Formic Acid in Acetonitrile
(§13) Gradient Time % Mobile Phase B

[3] = Intrinsic clearance in human liver microsomes; type: in vitro ADME; conditions: pH 7.4; human liver microsomes
Protocol: as §1, §2, §3, §4, §5, §6, §7, §8, §9, §10, §11, §12, §13

[4] = Binding in plasma from rat (equilibrium dialysis); type: in vitro ADME; conditions: fraction unbound, equilibrium dialysis, read-out: rat fu,plasma
Protocol: (§14) Binding in plasma from rat and human.
(§15) Determination of compounds’ fraction unbound (f u) in plasma from rat and human was conducted in vitro via equilibrium dialysis using HTDialysis membrane plates. Dialysis membranes (four paired strips per HTD assay) were hydrated as described by the manufacturer and inserted into the HTD plate, which was assembled and prepared for sample addition by the dispensing of blank buffer (DPBS, 100 µL/well) into the ‘top half’ of each membrane-split well. Each compound was diluted into plasma from each species (5 µM final concentration), which was aliquoted in triplicate to the ‘bottom half’ of the prepared HTD plate wells. The HTD plate was sealed and incubated for 6 hours at 37 °C. Following incubation, each well (both top and bottom halves) were transferred (20 µL) to the corresponding wells of a 96-shallow-well (V-bottom) plate. The daughter plates were then matrix-matched (buffer side wells received equal volume of plasma, and plasma side wells received equal volume of buffer), and extraction solution (120 µL; acetonitrile containing 50 nM carbamazepine as IS) was added to all wells of both daughter plates to precipitate protein and extract test article. The plates were then sealed and centrifuged (3500 rcf) for 10 minutes at ambient temperature. Supernatant (60 µL) from each well of the daughter plates was then transferred to the corresponding wells of new daughter plates (96-shallow-well, V bottom) containing water (Milli-Q, 60 µL/well), and the plates were sealed in preparation for LC-MS/MS analysis (see below). fu was calculated as (analyte to IS MS peak area ratio from Trans-buffer side) / (analyte to IS MS peak area ratio from Cis-plasma side). Mean values for each species were calculated from 3 replicates.

[5] = Binding in plasma from human (equilibrium dialysis); type: in vitro ADME; conditions: for fraction unbound at 6 h, 5 µM: human, plasma, read-out: human fu,plasma
Protocol: as §14, §15

[6] = Binding in brain homogenate from rat (equilibrium dialysis); type: in vitro ADME; conditions: for fraction unbound at 6 h, 1 µM: rat, brain homogenate, in %, read-out: fu,brain (rat brain homogenate)
Protocol: Binding in brain homogenate from rat.
Determination of fraction unbound (f u) in brain homogenate from rat was conducted using the same methodology and procedure than described for plasma protein binding assay with the following modifications: 1) a final compound concentration of 1 μM was used, 2) naïve rat brains were homogenized in DPBS (1:3 composition of brain: DPBS, w/w) using a Mini-Bead Beater™ machine in order to obtain […]
The diluted fraction unbound (f u2) in brain was calculated as (analyte to IS MS peak area ratio from Trans-buffer side) / (analyte to IS MS peak area ratio from Cis-brain homogenate side). Undiluted fraction unbound for the brain was calculated using the following equation: […]
Mean values for each species were calculated from 3 replicates. […]

[7] = Rat plasma-to-brain level (PBL) cassette, brain distribution; type: in vivo; conditions: male, Sprague-Dawley, rat, brain / plasma, iv, 0.2 mg/kg, SD rat, 0.2 mg/kg IV
[8] = read-out: hM4 pEC50 (converted)

## Cc1nc(C)c2c(n1)sc1c(NC3CCCC3)nccc12 [22d]
[1]
  hM4 pEC50: 6.87
  Emax: 73%
[1]; read-out: hM4 EC50
  EC50: 0.13 µM

## Cc1nc(C)c2c(n1)sc1c(N3CCCCC3)nccc12 [22e]
[1]
  Emax: 58%
[1]; read-out: hM4 EC50
  EC50: < 0.19 µM
[1]; [8]
  EC50: 0.0741 µM
[2]
  CLint scaled at 1 µM: 3440 mL/min/kg
[3]
  CLint scaled at 1 µM: 134 mL/min/kg
[4]
  fraction unbound at 6 h, 5 µM: 0.019
[5]; fraction unbound, equilibrium dialysis
  fraction unbound at 6 h, 5 µM: 0.007
[5]; in %
  fraction unbound at 6 h, 5 µM: < 0.01
  human fu,plasma: highly bound
[6]; fraction unbound, equilibrium dialysis, rat brain homogenates
  rat fbrain: 0.004
[6]
  fraction unbound at 6 h, 1 µM: < 0.01
[7]; total brain to total plasma ratio
  Kp at 0.25 h: 7.77
[7]; unbound brain to unbound plasma ratio
  Kp uu at 0.25 h: 1.64

## Cc1nc(C)c2c(n1)sc1c(NCc3ccc(C(C)(C)O)cc3F)nccc12 [22h]
[1]
  hM4 pEC50: 6.08
  Emax: 89%

## Cc1nc(C)c2c(n1)sc1c(NCc3ccc(C(C)(C)O)c(F)c3)nccc12 [22i]
[1]
  Emax: 86%
[1]; read-out: hM4 EC50
  EC50: 0.28 µM
[6]
  fraction unbound at 6 h, 1 µM: < 0.01

## Cc1nc(CC(C)C)nc2sc3c(NCc4ccc(C(C)(C)O)cc4)nccc3c12 [22n]
[1]
  Emax: 66%
  fold decrease in hM4 activity with R1 larger than methyl: > 66 fold

## Cc1nc(C2CC2)nc2sc3c(NCc4ccc(C(C)(C)O)cc4)nccc3c12 [22o]
[1]
  hM4 pEC50: 5.86
  Emax: 97%
  fold decrease in hM4 activity with R1 larger than methyl: 9.3 fold
[1]; read-out: hM4 EC50
  EC50: 1.4 µM

## CCc1nc(C)c2c(n1)sc1c(NCc3ccc(C(C)(C)O)cc3)nccc12 [22p]
[1]
  Emax: 81%
  fold decrease in hM4 activity with R1 larger than methyl: 4.0 fold
[1]; read-out: hM4 EC50
  EC50: 0.77 µM

## Cc1nc(C2CC2)nc2sc3c(N4CCCC4)nccc3c12 [22q]
[1]
  hM4 pEC50: 6.00
  Emax: 65%
  fold decrease in hM4 activity with R1 larger than methyl: > 13 fold
[1]; read-out: hM4 EC50
  EC50: 1 µM

## Cc1nc(C)c2c(n1)sc1c(C3CC3)nccc12 [23a]
[1]
  Emax: 109%
[1]; read-out: hM4 EC50
  EC50: 0.57 µM

## Cc1nc(C)c2c(n1)sc1c(CC(C)(C)C)nccc12 [23b]
[1]
  Emax: 86%
[1]; read-out: hM4 EC50
  EC50: 0.24 µM

## Cc1nc(C)c2c(n1)sc1c(NCc3ccc(C(C)(C)O)cc3)ncc(Cl)c12 [26a]
[1]
  hM4 pEC50: 5.48
  Emax: 92%

## Cc1nc(C)c2c(n1)sc1c(N3CCCC3)ncc(Cl)c12 [26b]
[1]
  Emax: 61%
[1]; read-out: hM4 EC50
  EC50: 0.69 µM

## Cc1nc(C)c2c(n1)sc1c(NCc3ccc(C(C)(C)O)cc3)ncc(C3CC3)c12 [compound 27]
[1]; [8]
  EC50: > 31.6 µM

## Cc1nc(C)c2c(n1)sc1c(NCc3ccc(C(C)(C)O)cc3)ncc(C#N)c12 [compound 28]
[1]
  Emax: 62%
[1]; read-out: hM4 EC50
  EC50: 0.96 µM
